The results in this text go back to patent publication US5561117A, “Bridged bis-aryl carbinol derivatives, compositions and methods of use” (Schering Corporation, priority 1994, dated 1996).

In test [1] the test system is PAF-induced platelet aggregation (human platelets). The test is described as follows: In vitro platelet aggregation assay: inhibition of PAF-induced aggregation in platelet-rich plasma. The format is cell-based. The settings on record: PAF-induced aggregation of human PRP, 2 min preincubation, 37° C., PAF 1-5×10^-8 M, read-out: PAF Antagonism (in vitro) IC50. As for the experimental part:
A. In Vitro Studies--Platelet Aggregation Assay
Platelet-activating factor (PAF) causes aggregation of platelets by a receptor-mediated mechanism. Therefore, PAF-induced platelet aggregation provides a simple and convenient assay to screen compounds for PAF antagonism.
Human blood (50 ml) was collected from healthy male donors in an anticoagulant solution (5 ml) containing sodium citrate (3.8%) and dextrose (2%). Blood was centriguged at 110×g for 15 min. and the supernatant platelet-rich plasma (PRP) carefully transferred into a polypropylene tube. Platelet-poor-plasma (PPP) was prepared by centrifuging PRP at 12,000×g for 2 min. (Beckman Microfuge B). PRP was used within 3 hr. of drawing the blood.
PAF was dissolved in chloroform:methanol (1:1, v/v) at a concentration of 2 mg/ml and stored at -70° C. An aliquot of this solution was transferred to a polypropylene tube and dried under a flow of nitrogen gas. To the dried sample was added Hepes-saline-BSA (BSA=bovine serum albumen) buffer (25 mM Hepes, pH 7.4, […], 0.7 mM MgCl2 and 0.1% BSA) to obtain a 1 mM solution and sonicated for 5 min. in a bath sonicator. This stock solution was further diluted to appropriate concentrations in Hepes-saline-BSA buffer. Collagen (Sigma) and adenosine diphosphate (ADP) (Sigma) were purchased as solutions. Test compounds were initially dissolved in dimethyl sulfoxide (DMSO) at a concentration of 50 mM and then further diluted in Hepes-saline-BSA buffer to achieve appropriate concentrations.
When an aggregating agent such as PAF is added to PRP, platelets aggregate. An aggregometer quantifies this aggregation by measuring and comparing light (infra-red) transmission through PPP and PRP. Aggregation assays were performed using a dual-channel aggregometer (Model 440, Chrono-Log Corp., Havertown, Pa.). PRP (0.45 ml) in aggregometer cuvettes was continually stirred (37° C.). Solutions (50 μL) of test compounds or vehicel were added to the PRP and, after incubation for 2 min., 10-15 μl aliquots of PAF solution were added to achieve a final concentration of 1-5×10^-8 M. In different experiments the aggreatory response was kept within a set limit by varying the concentration of PAF. Incubations were continued until the increase in light transmission reached a maximum (usually 2 min.). This increase in light transmission reflecting platlet aggregation is transmitted to a computer by the Chrono-Log model 810 AGGRO/LINK interface. The AGGRO/LINK calculates the slope of transmission change, thus providing the rate of aggregation. Values for inhibition were calculated by comparing rates of aggregation obtained in the absence and the presence of the compound. For each experiment, a standard PAF antagonist such as 8-chloro-6,11-dihydro-11-(1-acetyl-4-piperidylidene)-5H-benzo[5,6]cyclohepta[1,2-b]pyridine was used as a positive control. […]

The test system of a further test is PAF-induced bronchospasm. The test is described as follows: Spasmogen-induced bronchospasm in guinea pigs, PAF challenge. The settings on record: dose 3 mpk, PAF 0.4 μg/kg i.v., inhibition of increase in inflation pressure vs control. The test is classed as in vivo, guinea pig (male Hartley).
In test [2] the test system is histamine-induced bronchospasm. Put plainly: Spasmogen-induced bronchospasm in guinea pigs, histamine challenge. The test is classed as in vivo, guinea pig (male Hartley). Particulars: dose 3 mpk, histamine 10 ug/kg i.v., inhibition of increase in inflation pressure vs control.

As to `[O-][n+]1ccc(CN2CCC(C3(O)c4ccccc4Oc4cccnc43)CC2)cc1` (stereo not shown) [IA-11], the IC50 (commonly the concentration that gives 50% inhibition) in test [1] is 5000 nM.
With `O=C(c1cc[n+]([O-])cc1)N1CCC(C2(O)c3ccccc3Oc3ncccc32)CC1` (stereo not shown) [IA-4], in test [1], the IC50 worked out at 800 nM.
As to `O=C(c1cc[n+]([O-])cc1)N1CCC(C2(O)c3ccccc3Oc3cccnc32)CC1` (stereo not shown) [IA-3], in test [1], the concentration for half-maximal inhibition (IC50) was 2000 nM. Moreover, the “Agonist Bronchospasm (in Vivo)-oral, PAF, % Inhibition” value in the test with PAF-induced bronchospasm stood at 97%. In test [2], the “Agonist Bronchospasm (in Vivo)-oral, Histamine, % Inhibition” value is recorded as 0%.
Consider `O=C(c1cc[n+]([O-])cc1)N1CCC(C2(O)c3ccccc3Sc3ccccc32)CC1` [IA-6], for which the IC50 in test [1] came to 1500 nM. Moreover, the “Agonist Bronchospasm (in Vivo)-oral, PAF, % Inhibition” value in the test on PAF-induced bronchospasm turned out to be 20%.
In the case of `[O-][n+]1ccc(CN2CCC(C3(O)c4ccccc4Sc4ccccc43)CC2)cc1` [IA-14], the IC50 in test [1] was 1750 nM.
Take `[O-][n+]1ccc(CN2CCC(C3(O)c4ccccc4Oc4ncccc43)CC2)cc1` (stereo not shown) [IA-12]: the IC50 in test [1] was determined as 3000 nM. Besides, in the test on PAF-induced bronchospasm, the “Agonist Bronchospasm (in Vivo)-oral, PAF, % Inhibition” value came to 42%. Besides, the “Agonist Bronchospasm (in Vivo)-oral, Histamine, % Inhibition” value in test [2] is on record as 0%.
Turning to `CN1c2ccccc2C(O)(C2CCN(C(=O)c3cc[n+]([O-])cc3)CC2)c2ccccc21` [IA-5], in test [1], the IC50 was 5000 nM. In the test with PAF-induced bronchospasm, the “Agonist Bronchospasm (in Vivo)-oral, PAF, % Inhibition” value is on record as 7%.
As to `O=C(c1cc[n+]([O-])cc1)N1CCC(C2(O)c3ccccc3CCc3cccnc32)CC1` (stereo not shown) [IA-8], the IC50 in test [1] is 2000 nM. Further, in the test with PAF-induced bronchospasm, the “Agonist Bronchospasm (in Vivo)-oral, PAF, % Inhibition” value stood at 25%.
With `O=C(c1cc[n+]([O-])cc1)N1CCC(C2(O)c3ccccc3Oc3ccccc32)CC1` [IA-2], in test [1], the IC50 was 5000 nM.
Still for that read-out and setting: as for `[O-][n+]1ccc(CN2CCC(C3(O)c4ccccc4Oc4cnccc43)CC2)cc1` (stereo not shown) [IA-9], the figure is over 10000 nM; as for `O=C(c1cc[n+]([O-])cc1)N1CCC(C2(O)c3ccccc3Oc3cnccc32)CC1` (stereo not shown) [IA-1], 5000 nM; as for `[O-][n+]1ccc(CN2CCC(C3(O)c4ccccc4Oc4ccccc43)CC2)cc1` [IA-10], 10000 nM.
